Measured values reported in publication PMC7162492, “Pharmacological and pharmacokinetic profile of the novel ocular hypotensive prodrug CKLP1 in Dutch-belted pigmented rabbits” (PLoS ONE, 2020).
“Also recorded” adds a separate entry of the source.

What was measured:
[1] = Plasma pharmacokinetics after topical eye drops of CKLP1, days 1, 4 and 8 (LC-MS/MS); format: in vivo, Dutch-belted pigmented rabbits; details: for AUClast / Clast / Cmax / Tlast / Tmax / half-life: plasma
Protocol: (§1) LC-MS/MS analysis of all fluids were performed using a Waters (Milford, MA) Acquity UPLC BEH C18 column (1.7 μm, 2.1 x 50 mm) with an Agilent EC-C18 pre-column (2.7 μm, 2.1 x 5 mm) and a gradient elution program containing ultra-pure water and acetonitrile with 2.5 mM ammonium formate, at a flow rate of 0.2 ml/min. Flavopiridol was used as an internal standard. The column and auto-sampler temperatures were maintained at 40°C and 4°C, respectively. Source parameters were capillary voltage, 2.6 kV; source temperature, 150°C; desolvation temperature, 500°C; cone gas flow, 150 L/h; and desolvation gas flow, 800 L/h. The cone voltages and collision energies for CKLP1, levcromakalim and flavopiridol were determined by MassLynx-Intellistart software, v4.1, and were 32, 34 and 72 V (cone) and 20, 14 and 30 eV (collision), respectively. The retention times were 4.5 minutes for CKLP1, 5.9 minutes for levcromakalim and 5.7 minutes for flavopiridol.
(§2) To validate accurate measurement of CKLP1 and levcromakalim, known concentrations of CKLP1 (5, 10, 25, 50, 100, 250, 500 ng/ml) and levcromakalim (1, 5, 10, 25, 50, 100, 250 ng/ml) were added to human plasma (obtained from the Mayo Clinic Division of Transfusion Medicine under an Institutional Review Board approved protocol) to make calibration curves. Quality control was determined for each run by using known quantities of CKLP1 and levcromakalim to verify that the instrument recorded values consistent with the established standard curve. The effect of carryover was evaluated by injecting blank samples before and after running the standard samples for calibration curves. Unknown samples with signal to noise ratios >10 were recorded as acceptable concentrations. Samples with signal to noise ratios <10 were reported as not detectable (ND). Controls consisted of a double blank (without analytes and internal standard) and a single blank (only internal standard). The linearity of the calibration curves was determined by plotting the ratios of analytes to internal standard peak areas. The curve was fitted by least squares regression with a 1/x weighting for both CKLP1 and levcromakalim. Data was collected from 3–6.4 minutes for CKLP1 and 4–8 minutes for both levcromakalim and flavopiridol. Waters MassLynx Intellistart software v4.1 was used for analysis.
(§3) All experiments with animals were pre-approved by the Institutional Animal Care and Use Committee of the Mayo Clinic, Rochester, MN and adhered to the recommendations in the Guide for the Care and use of Laboratory Animals of the National Institutes of Health, and the tenets of the ARVO Statement for the Use of Animals in Vision Research. Female Dutch-belted pigmented rabbits (age 7 months) were obtained from Covance Research Products, Inc. (Denver, PA). Rabbits were housed in pairs and kept in a climate controlled room with 12 h light and dark cycles. Animals had unrestrained access to water and standard rabbit food pellets at all times. Upon receipt, animals were acclimated for at least 5 days before initiation of the experiment. IOP was measured with a handheld rebound tonometer (Icare Tonovet, Colonial Medical Supply, Franconia, NH, USA) in conscious and minimally restrained, non-anesthetized rabbits as previously described. Briefly, daily IOP was calculated from the average of 3 independent IOP measurements at 3 different time points each day. These time points corresponded to 1 h, 4 h and 23 h post treatment on any given day. Rabbits that needed to be handled for IOP were subjected to sham IOP measurements for two days prior to initiation of experiment. Rabbits (n = 3) were injected intravenously through the right ear vein with CKLP1 as a bolus dose equal to 0.25 mg/kg body weight. Additional rabbits were treated topically through instillation of 50 μl eye drops of a 10 mM (4.1 mg/ml) solution of CKLP1 in sterile PBS. […]

[2] = Concentration in aqueous and vitreous humor after topical CKLP1 for 1, 4 or 8 days (LC-MS/MS); format: in vivo, Dutch-belted pigmented rabbits; details: topical CKLP1 both eyes, days 1, 4 and 8, collected after the 24 h blood sample
Protocol: as §1, §2, §3

[3] = parameters: method as in earlier work; details: ref Roy Chowdhury U, Viker KB, Stoltz KL, et al. J Med Chem. 2016;59(13):6221-31; cited from earlier work
[4] = Plasma pharmacokinetics after single intravenous injection of CKLP1 (LC-MS/MS); format: in vivo, Dutch-belted pigmented rabbits; details: rabbit, intravenous 0.25 mg/kg CKLP1
Protocol: as §1, §2, §3

[5] = tested on: Dutch-belted pigmented rabbits; experiment: Tolerability observation during topical CKLP1 treatment for 1, 4 or 8 days; format: in vivo; details: topical CKLP1 both eyes for 1, 4 or 8 days
Description: as §3, with “experiment.” for “experiment. Rabbits (n = 3) were injected intravenously through the right ear vein with CKLP1 as a bolus dose equal to 0.25 mg/kg body weight. Additional rabbits were treated topically through instillation of 50 μl eye drops of a 10 mM (4.1 mg/ml) solution of CKLP1 in sterile PBS.”

phosphatases = experiment: In vitro cleavage of CKLP1 by phosphatases (unpublished data); format: in vitro ADME
[6] = eye drops 10 mM CKLP1 both eyes once daily, Day 4
[7] = eye drops 10 mM CKLP1 both eyes once daily, Day 8
[8] = eye drops 10 mM CKLP1 both eyes, Day 1

## sodium [CKLP1, sodium [(3S,4R)-6-cyano-2,2-dimethyl-4-(2-oxopyrrolidin-1-yl)-chroman-3-yl phosphate]]
[1]; [6]
  AUClast: 360 ± 82 ng·h/mL
  Clast: 4.2 ± 2.6 ng/mL
  Cmax: 30.6 ± 7.3 ng/mL
  Tlast: 24.0 ± 0.0 h
  Tmax: 325.0 ± 268.5 min
  half-life: 6.7 ± 2.0 min
[1]; [7]
  AUClast: 341 ± 45.2 ng·h/mL
  Clast: 4.2 ± 1.5 ng/mL
  Cmax: 36.3 ± 13.3 ng/mL
  Tlast: 24.0 ± 0.0 h
  Tmax: 20.0 ± 8.7 min
  half-life: 7.7 ± 3.0 min
[1]; [8]
  AUClast: 271 ± 55 ng·h/mL
  Clast: 5.1 ± 1.1 ng/mL
  Cmax: 20.0 ± 6.3 ng/mL
  Tlast: 24.0 ± 0.0 h
  Tmax: 360.0 ± 207.9 min
  half-life: 10.7 ± 4.1 min
[1]; topical 10 mM CKLP1 in the eye
  Amount in plasma after topical CKLP1: trace amounts
[2]
  Concentration in aqueous humor: No CKLP1 was detected; also recorded: below detectable limits
  Concentration in vitreous humor: No CKLP1 was detected; also recorded: below detectable limits
[3]
  Solubility in water: water soluble
[4]
  AUClast: 2164.0 ± 482.5 ng·h/mL
  Clast: 34.9 ± 42.4 ng/mL
  Cmax: 1968.5 ± 831.0 ng/mL
  Tlast: 5.6 ± 1.8 h
  Tmax: 19.8 ± 23.0 min
  half-life: 61.8 ± 55.2 min
[5]
  Tolerability, visible signs of toxicity or discomfort: no visible signs of toxicity or discomfort
phosphatases
  Cleavage by phosphatases to cromakalim in vitro: never completely cleaved
